Experimental data published in patent US20030186967A1, “Acylresorcinol derivatives are selective vitronectin receptor inhibitors” (American Home Products Corporation, priority 1998, published 2003).
Structures can show the parent of a compound that is named as a salt. Where two headings read alike, the source gives them in different places. Ends that are not written are not given here.

Assays:
[1] = tested on: thyro-parathyroidectomized (TPTX) rats; experiment: PTH-induced hypercalcemia of thyroparathyroidectomized male rats; type: in vivo, rat
Experimental: Effects of test compounds on PTH-induced hypercalcemia of thyroparathyroidectomized male rats
Male thyro-parathyroidectomized (TPTX) rats (Charles River) were randomly assigned to groups of 7 rats/group. Following a baseline serum calcium determination an Alzet 1003D minipump (Alza Corporation, Palo Alto, Calif.) loaded with 0.3 mg/ml PTH (Bachem, Philadelphia, Pa.) was implanted subcutaneously in each rat. For evaluation of prophylactic effects of a test drug, another minipump with appropriate concentration of the test drug solution was implanted subcutaneously at a site away from PTH minipump. Alternatively, test drugs were administered by oral gavage as a solution or uniform suspension in an appropriate medium depending on the physical properties of the test compound. A group of 7 unimplanted TPTX rats was set aside as a normal control group. Twenty hours after minipump implantation blood was collected from each rat to confirm the presence of hypercalcemia (judged by elevation of serum calcium levels, 2 SD>normal non-implanted level). At various intervals between 0.5 and 24 hours after dosing (usually one to three time points), blood was collected from each rat and the serum evaluated for total calcium. Serum calcium levels were measured using the Nova 7+7 calcium auto analyzer spectrophotometrically using the Sigma test kit (#587A). Test results were determined by the difference in serum calcium between vehicle and treatment group following PTH administration, using a one-way analysis of variance with Dunnett's test or other multiple comparison methods.

αVβ3 integrin = biological target: T1, αVβ3 integrin (Homo sapiens, UniProt P05106+P06756); experiment: Osteopontin-αVβ3 Cell Attachment Assay; type: cell-based
T1 construct: αVβ3-expressing cell lines are maintained by standard tissue culture techniques; endogenous in cells; host or cells: αVβ3-expressing cell lines
Experimental: Osteopontin-αVβ3 Cell Attachment Assay The purpose of this assay is to measure the effect of various compounds on the RGD-dependent attachment of cells to osteopontin mediated by the αVβ3 integrin. […] Following the blocking period, wells are aspirated and washed once with D-PBS. Cell Suspension αVβ3-expressing cell lines are maintained by standard tissue culture techniques. […] The cells are pelleted by low-speed centrifugation and washed three times with 0.5 mg/mL trypsin inhibitor in D-PBS (Sigma). The final cell pellet is resuspended in cell suspension media at a concentration of 10^6 cells/mL. Attachment Assay Incubation: […] of diluted test compound is added to osteopontin-coated wells (in triplicate) followed by […] of cell suspension; background cell attachment is determined in uncoated wells. The plate is incubated at 25° C. in a humidified air atmosphere for 1.5 hours. Following the incubation period, the wells are gently aspirated and washed once with D-PBS. Cell Number Detection: The number of cells attached is determined by an MTT dye conversion assay (Promega) according to the manufacturer's instructions. Briefly, MTT dye is diluted in cell suspension media (15:85) and […] is added to each well. […] The assay plates are covered and incubated at 37° C. in a humidified air atmosphere overnight. […] Reference Compounds Various […]

osteoclasts = experiment: Osteoclast Pitting Assay; type: cell-based, rat
Experimental: The assay is conducted as described in Murrills and Dempster (1990). Briefly, 4×4×0.2 mm slices of devitalized bovine cortical bone are numbered, placed in the wells of 96-well culture plates and wetted with 100 ul of Medium 199 containing Hanks salts, 10 mM HEPES, pH 7.0 (Medium 199/Hanks). Bone cell suspensions containing osteoclasts are prepared by mincing the long bones of neonatal rats (Sprague-Dawley, 4-6 days old) in Medium 199/Hanks. 100 uL of the suspension is then plated onto each slice and incubated 30 minutes to allow osteoclasts to adhere. The slices are rinsed to remove non-adherent cells and incubated 24 h in Medium 199 containing Earle's salts, 10 mM HEPES and 0.7 g/L NaHCO3, which equilibrates at pH 6.9 in a 5% CO2 atmosphere. At this pH the adherent osteoclasts excavate an adequate number of resorption pits for assay purposes. Slices are fixed in 2.5% glutaraldehyde and osteoclasts counted following tartrate-resistant acid phosphatase staining. […] All cells are stripped from the slice by sonication on 0.25M NH4OH and the resorption pits formed by the osteoclasts during the experiment stained with toluidine blue. Resorption pits are quantified by manually counting.
The experiments are conducted according to a block design with osteoclasts from each animal exposed to each treatment. Three replicate slices are used per treatment per animal, such that a total of 96 slices are examined for an experiment involving four animals and eight treatments (including control). Several parameters are recorded on a “per slice” basis: number of pits, number of osteoclasts, number of pits per osteoclast, number of fibroblast-like bone cells. SAS or JMP statistical software is used for statistical analysis. […] IC50s are calculated for active compounds using dose-response curves.
Reference Compound: Rat calcitonin.
Osteoclasts are responsible for the bone loss that occurs in the onset of osteoporosis and anti-resorptive drugs directed against the osteoclast are a requirement for patients losing bone.

[2] = biological target: T2, Vitronectin receptor αVβ3 (Homo sapiens, UniProt P05106+P06756); experiment: Vitronectin Receptor αVβ3 Binding Assay; conditions: for IC50: read-out: VnR (IC50μM)
T2 construct: expressed in transfected cells; host or cells: 512P5 cells (plasma membrane preparation)

[3] = Rattus norvegicus, po, 100 mg/kg
[4] = Rattus norvegicus, sc, 100 mg/kg
[5] = Osteoclast Pitting Assay, neonatal rat osteoclasts on bovine cortical bone slices, read-out: IC50 (μM) Bone Pitting

T2 sequence (P06756 31-889 limits assumed): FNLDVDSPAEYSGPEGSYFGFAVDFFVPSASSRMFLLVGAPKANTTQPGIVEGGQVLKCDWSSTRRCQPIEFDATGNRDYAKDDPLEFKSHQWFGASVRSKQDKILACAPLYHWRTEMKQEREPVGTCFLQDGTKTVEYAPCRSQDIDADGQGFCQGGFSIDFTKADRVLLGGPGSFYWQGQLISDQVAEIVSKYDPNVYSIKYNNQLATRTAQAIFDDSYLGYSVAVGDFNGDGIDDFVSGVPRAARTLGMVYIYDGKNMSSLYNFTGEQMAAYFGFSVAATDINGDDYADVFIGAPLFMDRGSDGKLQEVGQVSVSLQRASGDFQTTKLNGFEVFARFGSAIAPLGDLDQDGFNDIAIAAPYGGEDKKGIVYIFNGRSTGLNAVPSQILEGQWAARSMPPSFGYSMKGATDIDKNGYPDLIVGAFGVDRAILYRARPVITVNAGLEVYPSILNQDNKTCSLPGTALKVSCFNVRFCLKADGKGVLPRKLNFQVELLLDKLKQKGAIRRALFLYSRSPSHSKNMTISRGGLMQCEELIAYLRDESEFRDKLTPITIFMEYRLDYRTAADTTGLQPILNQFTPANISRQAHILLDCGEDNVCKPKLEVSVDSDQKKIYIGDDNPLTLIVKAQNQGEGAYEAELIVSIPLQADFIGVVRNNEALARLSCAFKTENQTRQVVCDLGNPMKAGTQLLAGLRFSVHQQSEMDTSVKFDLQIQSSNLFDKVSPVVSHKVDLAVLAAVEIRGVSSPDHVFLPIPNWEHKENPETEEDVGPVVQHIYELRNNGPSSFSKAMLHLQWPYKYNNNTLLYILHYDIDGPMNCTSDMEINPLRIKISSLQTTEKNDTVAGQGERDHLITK
T2 sequence (P06756 891-1048 partner limits assumed): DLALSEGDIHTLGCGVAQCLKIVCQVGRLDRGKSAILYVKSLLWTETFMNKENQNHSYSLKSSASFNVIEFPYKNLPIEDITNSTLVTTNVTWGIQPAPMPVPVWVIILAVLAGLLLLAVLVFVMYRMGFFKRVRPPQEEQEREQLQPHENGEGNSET
T2 sequence (P05106 27-788): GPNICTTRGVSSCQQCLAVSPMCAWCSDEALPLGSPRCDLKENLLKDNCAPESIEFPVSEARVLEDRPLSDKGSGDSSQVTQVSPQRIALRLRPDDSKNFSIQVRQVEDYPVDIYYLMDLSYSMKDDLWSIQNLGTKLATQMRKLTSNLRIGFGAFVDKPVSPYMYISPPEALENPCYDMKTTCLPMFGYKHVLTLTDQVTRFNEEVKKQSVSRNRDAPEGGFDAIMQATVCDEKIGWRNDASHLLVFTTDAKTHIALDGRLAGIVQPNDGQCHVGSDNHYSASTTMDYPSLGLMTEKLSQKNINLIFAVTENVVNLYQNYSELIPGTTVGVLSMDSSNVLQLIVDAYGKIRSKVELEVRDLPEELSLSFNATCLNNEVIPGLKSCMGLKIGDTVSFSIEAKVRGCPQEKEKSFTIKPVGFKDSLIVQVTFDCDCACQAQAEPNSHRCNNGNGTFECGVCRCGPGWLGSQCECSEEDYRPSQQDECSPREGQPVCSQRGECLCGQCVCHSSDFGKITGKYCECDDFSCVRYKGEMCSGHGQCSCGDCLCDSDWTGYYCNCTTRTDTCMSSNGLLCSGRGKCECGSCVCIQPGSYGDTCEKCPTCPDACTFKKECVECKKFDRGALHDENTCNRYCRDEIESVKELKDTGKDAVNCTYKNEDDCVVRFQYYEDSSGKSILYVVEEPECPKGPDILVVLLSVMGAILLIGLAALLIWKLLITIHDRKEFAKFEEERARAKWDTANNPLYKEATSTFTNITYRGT
T1 sequence (P06756 31-889 limits assumed): as the sequence (P06756 31-889 limits assumed) above
T1 sequence (P06756 891-1048 partner limits assumed): as the sequence (P06756 891-1048 partner limits assumed) above
T1 sequence (P05106 27-788): as the sequence (P05106 27-788) above

| IC50 (αVβ3 integrin) [µM] | IC50 (osteoclasts; [5]) [µM] | IC50 [2] [µM] | Molecule | inhibition in vivo at 100 mg/kg [1, 4] [%] | further results |
| --- | --- | --- | --- | --- | --- |
| 0.002 | 0.43 |  | O=C(NC[C@H](NS(=O)(=O)c1ccccc1)C(=O)O)c1ccc(OCCNC2=NCCCN2)cc1O [Example 275, 2(S)-Benzenesulfonylamino-3-[2-hydroxy-4-[2-(3,4,5,6-tetrahydro-pyrimidin-2-ylamino)ethoxy]benzoylamino]propionic acid hydrochloride] | 112 | inhibition in vivo at 100 mg/kg [1, 3]: 39%; inhibition in vivo at 30 mg/kg ([1]; Rattus norvegicus, sc, 30 mg/kg): 64%; inhibition in vivo at 75 mg/kg ([1]; Rattus norvegicus, sc, 75 mg/kg): 105% |
| 56 |  | 5 | N=C(N)NCCOc1ccc(C(=O)NC(CC(=O)O)c2cccnc2)c(O)c1 (centres unmarked) [Example 285, 3-[4-(2-Guanidino-ethoxy)-2-hydroxybenzoyl-amino]-3-pyridin-3-yl-propanoic acid] |  |  |
|  |  | 0.115 | CCOC(=O)CC(NC(=O)c1ccc(OCCNC2=NCCCN2)cc1O)c1ccccc1 (centres unmarked) [Example 292, 3-[2-hydroxy-4-[2-(3,4,5,6-tetrahydropyrimidin-2-ylamino)ethoxy]-benzoylamino]-3-phenyl-propanoic acid ethyl ester hydrochloride] | 111 |  |
|  |  | 0.003 | CCOC(=O)CC(NC(=O)c1ccc(OCCNc2ncccn2)cc1O)c1ccccc1 (centres unmarked) [Example 288, 3-[2-hydroxy-4-[2-(pyrimidin-2-ylamino)-ethoxy]benzoyl-amino]-3-phenyl-propanoic acid ethyl ester] |  | IC50 (osteoclasts; Rattus norvegicus, Osteoclast, read-out: bone pitting IC50): 0.44 µM |
| 0.02 | 0.5 |  | O=C(N[C@@H](CNC(=O)c1ccc(OCCNC2=NCCCN2)cc1O)C(=O)O)OCc1ccccc1 [Example 278, 2(S)-Benzyloxycarbonylamino-3-[2-hydroxy-4-[2-(3,4,5,6-tetrahydro-pyrimidin-2-ylamino)ethoxy]benzoylamino]propionic acid hydrochloride] |  |  |
| 0.05 | 0.4 |  | CCOC(=O)[C@H](CNC(=O)c1ccc(OCCNC2=NCCCN2)cc1O)NC(=O)OCc1ccccc1 [Example 277, 2(S)-Benzyloxycarbonylamino-3-[2-hydroxy-4-[2-(3,4,5,6-tetra-hydropyrimidin-2-ylamino)ethoxy]benzoylamino]propionic acid ethyl ester hydrochloride] | 86 | inhibition in vivo at 100 mg/kg [1, 3]: 79% |
|  | 1.9 |  | CCOC(=O)[C@H](CNC(=O)c1ccc(OCCNc2ncccn2)cc1O)NC(=O)OCc1ccccc1 [Example 299, 2(S)-Benzyloxycarbonylamino-3-[2-hydroxy-4-[2-(pyrimidin-2-ylamino)ethoxy]-benzoylamino]propionic acid ethyl ester hydro-chloride] |  | melting point: 124 to 125 °C; inhibition in vivo at 100 mg/kg [1, 3]: 102%; IC50 (μM) Cell (αVβ3 integrin): inactive @ 100 |
|  |  |  | Calcitonin: anti-resorptive used in the clinic; rat calcitonin is the reference compound of the pitting assay (CGNLSTCMLGTYTQDLNKFHTFPQTSIGVGAP; ends and bridges not checked; cysteine pairing not given here; UniProt P01257 85-116, looked up) [reference compound] |  | osteoclast inhibitory activity (osteoclasts): significant osteoclast inhibitory activity |
| 86 |  | 2.8 | O=C(O)CC(NC(=O)c1ccc(OCCNc2ncccn2)cc1O)c1cccnc1 (centres unmarked) [Example 286, 3-[2-hydroxy-4-[2-(pyrimidin-2-ylamino)-ethoxy]benzoylamino]-3-pyridin-3-yl-propanoic acid] |  |  |
| 33 |  |  | O=C(O)CC(NC(=O)c1ccc(OCCNC2=NCCCN2)cc1O)c1cccnc1 (centres unmarked) [Example 282, 3-[2-Hydroxy-4-[2-(3,4,5,6-tetrahydropyrimidine-2ylamino)-ethoxy]benzoylamino]-3-pyridin-3-ylpropionic acid] |  | VnR, % @ 100 ([2]; @ 100): −42% @ 100 |
| 50 | 25 |  | O=C(N[C@@H](CNC(=O)c1ccc(OCCNc2ncccn2)cc1O)C(=O)O)OCc1ccccc1 [Example 297, 2(S)-Benzyloxycarbonylamino-3-[2-hydroxy-4-[2-(pyrimidin-2-ylamino)ethoxy]-benzoylamino]propionic acid] |  |  |
|  |  |  | CCOC(=O)[C@H](CNC(=O)c1ccc(OCCNc2ncccn2)cc1O)NS(=O)(=O)c1ccccc1 [Example 273] |  | TPTX (% inhibition) ([1]; 100 mg/kg, s.c.): 57% |
| 78 |  | 12.3 | N=C(N)NCCOc1ccc(C(=O)NC(CC(=O)O)c2ccccc2)c(O)c1 (centres unmarked) [Example 280, 3-[4-Guanidinoethoxy)-2-hydroxy-benzoylamino]-3-phenylpropanoic acid, hydrochloride] |  | IC50 (μM) Bone Pitting (osteoclasts; Osteoclast Pitting Assay, neonatal rat osteoclasts on bovine cortical bone slices): inactive @ 200 |
| 28 |  | 0.44 | O=C(O)CC(NC(=O)c1ccc(OCCNC2=NCCCN2)cc1O)c1ccccc1 (centres unmarked) [Example 291, 3-[2-hydroxy-4-[2-(3,4,5,6-tetrahydropyrimidin-2-ylamino)ethoxy]-benzoylamino]-3-phenyl-propanoic acid] | 41 |  |
| 0.12 | 0.15 |  | CCOC(=O)[C@H](CNC(=O)c1ccc(OCCNC2=NCCCN2)cc1O)NS(=O)(=O)c1ccccc1 [Example 276, hydrochloride] | 170 |  |
|  |  | 0.013 | CCOC(=O)CC(NC(=O)c1ccc(OCCNC(=N)N)cc1O)c1ccccc1 (centres unmarked) [Example 279, 3-[4-(2-Guanidinoethoxy)-2-hydroxy-benzoylamino]-3-phenylpropanoic acid ethyl ester hydrochloride] | 59 |  |
| 18 | 0.9 |  | O=C(NC[C@H](NS(=O)(=O)c1ccccc1)C(=O)O)c1ccc(OCCNc2ncccn2)cc1O [Example 274] | 54 |  |
